In ChEMBL document CHEMBL1201862, “PubChem BioAssay data set” (2004):
Calls of active or inactive are those of the source.

Columns and labels:
BJ [1] = assay: BJ-TERT fibroblast viability loss – cell-based, RAS-independent, luminescence, dose response (AID 1933); assay type: functional; conditions: Homo sapiens
cells [2] = assay type: functional, cell-based
Beta-galactosidase [3] = target: T1, Beta-galactosidase (Escherichia coli, UniProt Q8VNN2); assay: PubChem AID 485352; assay type: functional
BJ [4] = assay: cells; assay type: functional, cell-based; conditions: Homo sapiens
[5] = target: Type-1 angiotensin II receptor (Homo sapiens, UniProt P30556); assay: antagonism of angiotensin II type 1 receptor – cell-based, uHTS hits, selectivity assay for APJ receptor antagonist project, dose response (AID 463214); assay type: functional;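 also: antagonist potency against angiotensin II stimulated AT1 response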
cells [6] = assay type: functional, cell-based; remark: listed apart in the source
[7] = target: T2, Kappa-type opioid receptor (Homo sapiens, UniProt P41145); assay type: functional
Beta-galactosidase [8] = target: T1, Beta-galactosidase; assay type: functional
BJ [9] = assay: BJ-TERT-LT-ST fibroblast viability loss – cell-based, RAS-independent, luminescence, dose response (AID 1935); assay type: functional; conditions: Homo sapiens;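 also: BJ fibroblasts immortalized with TERT plus LT and ST oncogenes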
[10] = target: T2, Kappa-type opioid receptor; assay type: functional; remark: listed apart in the source
[11] = DRD fibroblast viability loss – cell-based, non-viral oncogenic, luminescence, dose response (AID 1934); assay type: functional; conditions: Homo sapiens
[12] = THP-1 cell cytotoxicity, dose response, cytotoxicity control for non-replicating M. tuberculosis project (AID 489025); assay type: functional
[13] = HepG2 cell cytotoxicity, dose response, cytotoxicity control for non-replicating M. tuberculosis project (AID 489018); assay type: functional; conditions: Mycobacterium tuberculosis
[14] = Vero E6 cell cytotoxicity, dose response, cytotoxicity control for non-replicating M. tuberculosis project, secondary assay (AID 492998); assay type: functional, VeroE6; conditions: Vero C1008
cells [15] = assay type: functional
Vero [16] = assay: cells; assay type: functional, cell-based; conditions: Chlorocebus sabaeus
INS1 = assay: INS-1E survival protection against cytokine death – cell-based, luminescence, retest, dose response (AID 449756); assay type: functional; conditions: Rattus norvegicus;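 also: cell death triggered by IL-1 beta plus TNF-alpha plus IFN-gamma mixture; protective hits raise ATP signal compared with cytokine alone wells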
Vero [17] = assay: cells; assay type: functional; conditions: Chlorocebus sabaeus
[18] = reduction of Shn3 3'UTR-driven luciferase in osteoblasts – cell-based, Clone20 osteoblasts, firefly luciferase, cherry-picked, dose response (AID 624132); assay type: functional;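 also: firefly luciferase luminescence from reporter carrying the Shn3 3'UTR in osteoblasts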
[19] = loss of viability in HepG2 cells – cell-based, CellTiter-Glo, cherry-picked, cytotoxicity control for Shn3 inhibitor project, dose response (AID 624134); assay type: functional
[20] = non-specific 3'UTR reporter inhibition in Clone20-Shn3RL – cell-based, Renilla luciferase, cherry-picked, counter-screen for Shn3 inhibitor project, dose response (AID 624133); assay type: functional
Protein skinhead-1 = target: T3, Protein skinhead-1 (Caenorhabditis elegans, UniProt P34707); assay type: functional
T3 sequence (P34707 whole entry): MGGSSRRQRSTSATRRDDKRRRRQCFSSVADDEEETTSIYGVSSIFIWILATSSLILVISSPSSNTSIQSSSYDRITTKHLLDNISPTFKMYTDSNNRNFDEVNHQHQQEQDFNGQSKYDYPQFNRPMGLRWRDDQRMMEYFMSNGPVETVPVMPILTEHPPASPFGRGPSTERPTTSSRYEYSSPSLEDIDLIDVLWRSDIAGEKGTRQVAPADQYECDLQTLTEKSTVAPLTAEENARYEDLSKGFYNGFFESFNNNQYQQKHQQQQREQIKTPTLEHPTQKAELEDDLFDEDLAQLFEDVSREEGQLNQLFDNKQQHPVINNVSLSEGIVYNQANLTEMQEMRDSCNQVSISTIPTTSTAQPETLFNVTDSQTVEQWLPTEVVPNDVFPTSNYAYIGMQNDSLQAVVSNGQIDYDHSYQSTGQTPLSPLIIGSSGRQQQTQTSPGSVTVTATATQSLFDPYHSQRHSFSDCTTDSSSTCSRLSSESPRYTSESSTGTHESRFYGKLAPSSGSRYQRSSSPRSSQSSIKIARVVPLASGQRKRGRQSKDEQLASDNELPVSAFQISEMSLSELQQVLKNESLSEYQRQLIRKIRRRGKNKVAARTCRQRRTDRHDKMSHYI

[21] = A549 cell cytotoxicity, dose response, cytotoxicity control, plate reader, cherry-pick, antagonist series (AID 743412); assay type: functional, cell-based
[22] = toxicity toward HepG2 liver cells – cell-based, plate reader, cherry-pick, antagonist series, cytotoxicity control, dose response (AID 743416); assay type: functional
[23] = blockers of bursicon-stimulated LGR2 cAMP reporter – cell-based, HEK293, CRE-luciferase reporter, cherry pick, set 2, dose response (AID 743343); assay type: functional;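 also: transfected cells were stimulated with diluted bursicon conditioned medium after compound addition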
[24] = blockade of melanocortin 4 receptor signaling – cell-based, plate reader, cherry pick, counter-screen for LGR2 antagonist project, dose response (AID 743444); assay type: functional;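 also: transfected HEK 293 cells stimulated with alpha-MSH peptide; potency of inhibitors of the alpha-MSH evoked signal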
[25] = viability loss in HEK293 cells – cell-based, plate reader, cherry-picked samples, cytotoxicity control, dose response (AID 743446); assay type: functional
[26] = system: Streptococcus sp. 'group A'; assay: Streptococcus pyogenes SK(-)GAS viability under kanamycin – luminescence, BacTiterGlo, confirmation, counter-screen for streptokinase expression inhibitor project, dose response (AID 1900); assay type: functional, organism-based
Streptokinase A = target: T4, Streptokinase A (Streptococcus pyogenes serotype M1, UniProt P10520); assay: viability-normalized secreted streptokinase activity reduction – plasminogen activation absorbance, OD405, dose response (AID 1914); assay type: functional, Streptococcus pyogenes M1 GAS;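 also: secreted streptokinase activity via plasminogen activation per viability signal from cell pellet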
T4 sequence (P10520 whole entry): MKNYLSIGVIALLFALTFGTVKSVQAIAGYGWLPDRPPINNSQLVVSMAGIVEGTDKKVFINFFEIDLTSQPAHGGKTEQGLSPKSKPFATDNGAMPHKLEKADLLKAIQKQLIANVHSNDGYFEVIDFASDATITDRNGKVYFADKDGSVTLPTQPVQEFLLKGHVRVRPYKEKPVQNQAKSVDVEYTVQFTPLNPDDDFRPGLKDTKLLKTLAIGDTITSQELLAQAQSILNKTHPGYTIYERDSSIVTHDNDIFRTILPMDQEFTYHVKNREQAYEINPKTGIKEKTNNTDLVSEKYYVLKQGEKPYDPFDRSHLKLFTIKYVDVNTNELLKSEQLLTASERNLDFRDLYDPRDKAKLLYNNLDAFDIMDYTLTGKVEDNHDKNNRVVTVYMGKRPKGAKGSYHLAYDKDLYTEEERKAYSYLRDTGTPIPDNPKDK

Streptococcus = assay: GAS UMAA2166 growth inhibition – luminescence, BacTiterGlo, counter-screen for streptokinase expression inhibitor project, dose response (AID 1915); assay type: functional, organism-based;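 also: potency for reduction of bacterial viability or growth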

T1 sequence (Q8VNN2 whole entry): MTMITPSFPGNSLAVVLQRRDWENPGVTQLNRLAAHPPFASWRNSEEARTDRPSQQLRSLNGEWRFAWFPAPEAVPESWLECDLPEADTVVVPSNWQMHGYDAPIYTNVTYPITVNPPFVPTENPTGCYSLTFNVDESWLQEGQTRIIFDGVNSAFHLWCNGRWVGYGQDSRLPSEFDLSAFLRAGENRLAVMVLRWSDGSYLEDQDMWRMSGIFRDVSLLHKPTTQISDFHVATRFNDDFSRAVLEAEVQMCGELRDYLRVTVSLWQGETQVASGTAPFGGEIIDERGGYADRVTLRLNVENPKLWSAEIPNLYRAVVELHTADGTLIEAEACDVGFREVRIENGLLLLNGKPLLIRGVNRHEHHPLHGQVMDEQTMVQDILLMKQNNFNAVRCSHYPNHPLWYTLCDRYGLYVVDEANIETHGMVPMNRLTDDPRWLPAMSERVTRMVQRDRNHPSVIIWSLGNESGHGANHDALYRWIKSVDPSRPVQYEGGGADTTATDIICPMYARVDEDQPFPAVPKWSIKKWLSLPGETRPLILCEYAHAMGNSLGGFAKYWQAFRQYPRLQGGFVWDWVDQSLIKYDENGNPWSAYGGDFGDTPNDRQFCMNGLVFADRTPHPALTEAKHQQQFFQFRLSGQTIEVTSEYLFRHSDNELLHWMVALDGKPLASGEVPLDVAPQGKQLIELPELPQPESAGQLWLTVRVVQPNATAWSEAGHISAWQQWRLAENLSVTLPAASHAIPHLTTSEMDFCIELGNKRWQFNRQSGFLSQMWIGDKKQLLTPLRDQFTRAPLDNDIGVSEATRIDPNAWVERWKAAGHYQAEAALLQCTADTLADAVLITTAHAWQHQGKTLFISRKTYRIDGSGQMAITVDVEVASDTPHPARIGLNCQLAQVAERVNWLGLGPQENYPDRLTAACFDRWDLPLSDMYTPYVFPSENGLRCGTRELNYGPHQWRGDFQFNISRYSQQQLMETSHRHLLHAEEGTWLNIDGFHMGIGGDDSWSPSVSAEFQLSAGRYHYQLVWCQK
T2 sequence (P41145 whole entry): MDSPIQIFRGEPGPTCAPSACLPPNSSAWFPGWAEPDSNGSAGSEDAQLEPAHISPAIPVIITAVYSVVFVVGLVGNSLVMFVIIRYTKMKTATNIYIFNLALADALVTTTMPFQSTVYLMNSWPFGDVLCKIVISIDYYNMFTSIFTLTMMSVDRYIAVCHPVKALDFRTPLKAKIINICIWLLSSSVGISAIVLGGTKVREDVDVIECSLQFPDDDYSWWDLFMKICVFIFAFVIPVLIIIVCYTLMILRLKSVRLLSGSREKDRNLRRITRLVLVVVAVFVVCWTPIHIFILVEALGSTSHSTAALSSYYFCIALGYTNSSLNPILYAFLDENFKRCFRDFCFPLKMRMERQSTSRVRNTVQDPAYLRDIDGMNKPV
Chain of Type-1 angiotensin II receptor (P30556 whole entry): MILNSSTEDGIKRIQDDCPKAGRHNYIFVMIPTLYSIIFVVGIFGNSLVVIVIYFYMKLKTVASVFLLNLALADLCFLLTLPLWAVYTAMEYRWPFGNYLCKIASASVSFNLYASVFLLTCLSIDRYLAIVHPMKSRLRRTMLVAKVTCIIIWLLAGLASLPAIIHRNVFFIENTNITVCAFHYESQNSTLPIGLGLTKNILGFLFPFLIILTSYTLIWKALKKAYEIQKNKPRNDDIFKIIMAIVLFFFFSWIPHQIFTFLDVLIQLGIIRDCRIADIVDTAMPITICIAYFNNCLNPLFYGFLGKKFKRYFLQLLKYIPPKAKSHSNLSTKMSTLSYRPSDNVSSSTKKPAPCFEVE

O=C(Nc1nc2c(F)cc(F)cc2s1)c1ccccn1
> 350 µM (not active): EC50 (cells [2])
> 32 µM: IC50 [10]
> 150 µM (not active): EC50 (BJ [9])
inactive: EC50 (Beta-galactosidase [3]) > 40 µM | EC50 (Beta-galactosidase [8]) > 31.5 µM | IC50 (Protein skinhead-1) > 100 µM
active: EC50 (BJ [1]) 11.2 µM | EC50 (BJ [4]) 78.2 µM | IC50 [5] 9.46 µM | EC50 (cells [6]) 7.18 µM | IC50 [7] 8.25 µM | EC50 [11] 1.63 µM | CC50 [12] 2.14 µM | CC50 [13] 4.95 µM | CC50 [14] 2.12 µM | IC50 (cells [15]) 0.42 µM | IC50 (Vero [16]) > 25 µM | AC50 (INS1) 2.08 µM | CC50 (Vero [17]) 7.89 µM | AC50 [18] 6.69 µM | AC50 [19] 15.2 µM | AC50 [20] 2.21 µM | AC50 [21] 2.66 µM | AC50 [22] 2.09 µM | AC50 [23] 4.05 µM | AC50 [24] 3.17 µM | AC50 [25] 10.8 µM

Cc1ccc(NNC(=O)c2cc(C(C)(C)C)nn2Cc2ccccc2)cc1
inactive: EC50 (Beta-galactosidase [3]) > 40 µM
> 150 µM (not active): EC50 (Streptococcus)
active: EC50 [26] 17.5 µM | EC50 (Streptokinase A) 29.5 µM | IC50 [5] 3.81 µM
